pEC50: −log10 of the molar value. Like-named read-outs stand apart in the source and are kept apart here.
Molecular target: T1, human GR (Homo sapiens, UniProt P04150)
T1 sequence (P04150 1-777): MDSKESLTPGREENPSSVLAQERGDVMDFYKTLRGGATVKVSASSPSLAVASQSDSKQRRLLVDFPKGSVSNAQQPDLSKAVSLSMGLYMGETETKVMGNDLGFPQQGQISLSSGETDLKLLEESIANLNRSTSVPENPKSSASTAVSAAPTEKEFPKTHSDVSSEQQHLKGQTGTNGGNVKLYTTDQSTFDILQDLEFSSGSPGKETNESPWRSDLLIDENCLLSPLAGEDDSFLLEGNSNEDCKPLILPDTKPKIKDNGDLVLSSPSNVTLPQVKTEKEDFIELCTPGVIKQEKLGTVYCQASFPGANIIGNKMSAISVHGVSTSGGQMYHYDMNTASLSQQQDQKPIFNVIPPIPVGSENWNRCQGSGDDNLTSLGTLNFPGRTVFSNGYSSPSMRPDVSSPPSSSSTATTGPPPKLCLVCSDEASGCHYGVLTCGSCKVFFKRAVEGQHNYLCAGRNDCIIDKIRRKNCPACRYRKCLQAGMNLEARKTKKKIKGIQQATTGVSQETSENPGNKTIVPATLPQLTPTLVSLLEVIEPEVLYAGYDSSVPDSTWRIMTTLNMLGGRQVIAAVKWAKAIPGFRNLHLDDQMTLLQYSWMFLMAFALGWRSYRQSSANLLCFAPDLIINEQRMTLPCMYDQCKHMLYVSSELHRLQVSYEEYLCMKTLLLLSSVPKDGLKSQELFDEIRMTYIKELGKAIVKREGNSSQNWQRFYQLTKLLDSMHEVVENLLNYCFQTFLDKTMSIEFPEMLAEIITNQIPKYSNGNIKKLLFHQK
Test: Transrepression Assay (GITAR), TNFα-β-lactamase reporter in U937 cells
Type: cell-based
Set-up: U937 cells contain an endogenous glucocorticoid receptor (GR); endogenous in cells; host or cells: U937 cells stably transfected with the TNF-alpha promoter/beta-lactamase reporter
Settings: for GITAR > GRAMM % SEP: GITAR Emax minus GRAMMER Emax; for pEC50: U937 cells, inflection point, read-out: Transrepression U937 Cells GITAR IP
Summary of the method: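 Stable TNF-α-promoter/β-lactamase U937 line, endogenous GR; 50,000 cells/well. Cmpd 30–45 min 37 °C → PMA 5 ng/ml + LPS 100 ng/ml final, 37 °C ~18 hr → CCF2-AM 70–90 min RT. 100 nM dex = 100%.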

[1] = U-937, U937 cells, maximum activity, read-out: Transrepression U937 Cells GITAR Emax
[2] = U-937, activity repressed by 100 nM dexamethasone alone set as 100%, read-out: maximal activity in the transrepression (GITAR) assay

GITAR > GRAMM % SEP [%] | pEC50 | Emax [1] [%] | Emax [2] [%] | Compound
33.7 | 6.26 | 63.1 | > 5 | Cn1cc(S(=O)(=O)N(CC#N)C[C@H]2CCC3=Cc4c(cnn4-c4ccc(F)cc4)C[C@@]32C)c(C(F)(F)F)n1 [Example 32, N-(cyanomethyl)-N-{[(4αR,5S)-1-(4-fluorophenyl}-4α-methyl-1,4,4α,5,6,7-hexahydrocyclopenta[f]indazol-5-yl]methyl}-1-methyl-3-(trifluoromethyl)-1H-pyrazole-4-sulfonamide]
44.5 | 5.92 | 59.7 | > 5 | Cc1cc(S(=O)(=O)N(CC#N)C[C@H]2CCC3=Cc4c(cnn4-c4ccc(F)cc4)C[C@@]32C)c(C)o1 [Example 33, (4αR,5S)-5-({(cyanomethyl)[(2,5-dimethyl-3-furyl)sulfonyl]amino}methyl)-1-(4-fluorophenyl)-4α-methyl-1,4,4α,5,6,7-hexahydrocyclopenta[f]indazol-2-ium]
8.9 | 5.75 | 45.9 | > 5 | COC(=O)c1sccc1S(=O)(=O)N(CC#N)C[C@H]1CCC2=Cc3c(cnn3-c3ccc(F)cc3)C[C@@]21C [Example 34, methyl 3-[((cyanomethyl){[(4αR,5S)-1-(4-fluorophenyl)-4α-methyl-1,4,4α,5,6,7-hexahydrocyclopenta[f]indazol-5-yl]methyl}amino)sulfonyl]thiophene-2-carboxylate]
34.6 | 6.11 | 39.5 | > 5 | Cn1nc(C(F)(F)F)cc1-c1ccc(S(=O)(=O)N(CC#N)C[C@H]2CCC3=Cc4c(cnn4-c4ccc(F)cc4)C[C@@]32C)s1 [Example 35]
49.5 | 6.27 | 72.2 | > 5 | C[C@]12Cc3cnn(-c4ccc(F)cc4)c3C=C1CC[C@@H]2CN(CC#N)S(=O)(=O)c1cccc(C#N)c1 [Example 36, 3-cyano-N-(cyanomethyl)-N-{[(4αR,5S)-1-(4-fluorophenyl)-4α-methyl-1,4,4α,5,6,7-hexahydrocyclopenta[f]indazol-5-yl]methyl}benzenesulfonamide]
30.9 | 5.87 | 33.8 | > 5 | Cn1cnc(S(=O)(=O)N(CC#N)C[C@H]2CCC3=Cc4c(cnn4-c4ccc(F)cc4)C[C@@]32C)c1 [Example 37, N-(cyanomethyl)-N-{[(4αR,5S)-1-(4-fluorophenyl}-4α-methyl-1,4,4α,5,6,7-hexahydrocyclopenta[f]indazol-5-yl]methyl}-1-methyl-1H-imidazole-4-sulfonamide]
32.5 | 5.63 | 33.8 | > 5 | C[C@]12Cc3cnn(-c4ccc(F)cc4)c3C=C1CC[C@@H]2CN(CC#N)S(=O)(=O)c1ccc(Oc2cccc(Cl)c2C#N)cc1 [Example 38, 4-(3-chloro-2-cyanophenoxy)-N-(cyanomethyl)-N-{[(4αR,5S)-1-(4-fluorophenyl)-4α-methyl-1,4,4α,5,6,7-hexahydrocyclopenta[f]indazol-5-yl]methyl}benzenesulfonamide]
15.5 | 7.46 | 17.1 | > 5 | CN1CCOc2cc(S(=O)(=O)N(CC#N)C[C@H]3CCC4=Cc5c(cnn5-c5ccc(F)cc5)C[C@@]43C)ccc21 [Example 39, N-(cyanomethyl)-N-{[(4αR,5S)-1-(4-fluorophenyl)-4α-methyl-1,4,4α,5,6,7-hexahydrocyclopenta[f]indazol-5-yl]methyl}-4-methyl-3,4-dihydro-2H-1,4-benzoxazine-7-sulfonamide]
16.6 | 7.45 | 19.8 | > 5 | C[C@]12Cc3cnn(-c4ccc(F)cc4)c3C=C1CC[C@@H]2CN(CC#N)S(=O)(=O)c1cccc2ccccc12 [Example 40, N-(cyanomethyl)-N-{[(4αR,5S)-1-(4-fluorophenyl)-4α-methyl-1,4,4α,5,6,7-hexahydrocyclopenta[f]indazol-5-yl]methyl}naphthalene-1-sulfonamide]
31.6 | 6.44 | 91.9 | > 5 | C[C@]12Cc3cnn(-c4ccc(F)cc4)c3C=C1CC[C@@H]2CN(CC#N)S(=O)(=O)c1cc(OCC(F)(F)F)ccc1OCC(F)(F)F [Example 41, N-(cyanomethyl)-N-{[(4αR,5S)-1-(4-fluorophenyl)-4α-methyl-1,4,4α,5,6,7-hexahydrocyclopenta[f]indazol-5-yl]methyl}-2,5-bis(2,2,2-trifluoroethoxy)benzenesulfonamide]
15.1 | 6.41 | 19.2 | > 5 | C[C@]12Cc3cnn(-c4ccc(F)cc4)c3C=C1CC[C@@H]2CN(CC#N)S(=O)(=O)c1ccc(-c2ccccc2)cc1 [Example 42, N-(cyanomethyl)-N-{[(4αR,5S)-1-(4-fluorophenyl)-4α-methyl-1,4,4α,5,6,7-hexahydrocyclopenta[f]indazol-5-yl]methyl}biphenyl-4-sulfonamide]
35.8 | 5.96 | 71.8 | > 5 | C[C@]12Cc3cnn(-c4ccc(F)cc4)c3C=C1CC[C@@H]2CN(CC#N)S(=O)(=O)c1ccccc1F [Example 43, N-(cyanomethyl)-2-fluoro-N-{[(4αR,5S)-1-(4-fluorophenyl)-4α-methyl-1,4,4α,5,6,7-hexahydrocyclopenta[f]indazol-5-yl]methyl}benzenesulfonamide]
20.8 | 5.98 | 65.6 | > 5 | C[C@]12Cc3cnn(-c4ccc(F)cc4)c3C=C1CC[C@@H]2CN(CC#N)S(=O)(=O)c1cc(F)cc(F)c1 [Example 44, N-(cyanomethyl)-3,5-difluoro-N-{[(4αR,5S)-1-(4-fluorophenyl)-4α-methyl-1,4,4α,5,6,7-hexahydrocyclopenta[f]indazol-5-yl]methyl}benzenesulfonamide]
1.3 | 5.86 | 12.8 | > 5 | C[C@]12Cc3cnn(-c4ccc(F)cc4)c3C=C1CC[C@@H]2CN(CC#N)S(=O)(=O)c1ccc(Oc2ccccn2)cc1 [Example 45, N-(cyanomethyl)-N-{[(4αR,5S)-1-(4-fluorophenyl)-4α-methyl-1,4,4α,5,6,7-hexahydrocyclopenta[f]indazol-5-yl]methyl}-4-(pyridin-2-yloxy)benzenesulfonamide]
2.1 | 6.73 | 85.5 | > 5 | C[C@]12Cc3cnn(-c4ccc(F)cc4)c3C=C1CC[C@@H]2CN(CC#N)S(=O)(=O)c1ccc(F)cc1 [Example 46, N-(cyanomethyl)-4-fluoro-N-{[(4αR,5S)-1-(4-fluorophenyl)-4α-methyl-1,4,4α,5,6,7-hexahydrocyclopenta[f]indazol-5-yl]methyl}benzenesulfonamide]
15.7 | 6.05 | 74 | > 5 | C[C@]12Cc3cnn(-c4ccc(F)cc4)c3C=C1CC[C@@H]2CN(CC#N)S(=O)(=O)c1cc(F)c(F)cc1F [Example 47, N-(cyanomethyl)-2,4,5-trifluoro-N-{[(4αR,5S)-1-(4-fluorophenyl)-4α-methyl-1,4,4α,5,6,7-hexahydrocyclopenta[f]indazol-5-yl]methyl}benzenesulfonamide]
15.7 | 6.76 | 24.5 | > 5 | C[C@]12Cc3cnn(-c4ccc(F)cc4)c3C=C1CC[C@@H]2CN(CC#N)S(=O)(=O)Cc1ccccc1 [Example 48, N-(cyanomethyl)-N-{[(4αR,5S)-1-(4-fluorophenyl)-4α-methyl-1,4,4α,5,6,7-hexahydrocyclopenta[f]indazol-5-yl]methyl}-1-phenylmethanesulfonamide]
8.9 | 6.04 | 23 | > 5 | Cc1ccccc1S(=O)(=O)N(CC#N)C[C@H]1CCC2=Cc3c(cnn3-c3ccc(F)cc3)C[C@@]21C [Example 49, N-(cyanomethyl)-N-{[(4αR,5S)-1-(4-fluorophenyl)-4α-methyl-1,4,4α,5,6,7-hexahydrocyclopenta[f]indazol-5-yl]methyl}-2-methylbenzenesulfonamide]
